In data set [1] the test system is PCSK9 protein. As to the kind of experiment: Influence of test compound on PCSK9 protein production amount in HepG2 cells (ELISA). The settings on record: about 24 hours treatment, intracellular PCSK9 protein by ELISA, read-out: IC50 (50% PCSK9 production-suppressing concentration). The format is cell-based, human. How it is done:
A test compound was added to culture supernatant of cells of the human liver cancer-derived cell strain, HepG2 cells, and intracellular amount of the PCSK9 protein was measured by the enzyme-linked immunosorbent assay (ELISA) after 24 hours. Specifically, the HepG2 cells were inoculated into wells of a 96-well microplate at a density of 5 to 7.5×10^4 cells/well, and the culture supernatant was exchanged with the MEM medium containing 10% lipoprotein deficient serum (LPDS) on the next day. After the cells were further cultured for one day, the culture supernatant was exchanged with the 10% LPDS-containing MEM medium containing a test compound, and the cells were treated with the compound for about 24 hours. The medium for treating the cells was prepared by dissolving the test compound in dimethyl sulfoxide (DMSO), and adding the resulting solution to the 10% LPDS-containing medium. The medium for treating cells for control was prepared by adding DMSO to the 10% LPDS-containing medium at the same final concentration. After completion of the treatment of the cells, a solubilization buffer (1% Nonidet P-40 in phosphate buffered saline) was added to the cells to extract proteins, and they were used as a sample.
The PCSK9 protein concentration and the total protein concentration in the sample were measured by using Human PCSK9 ELISA Kit produced by R&D Systems (Cat. No. DPC900), and BCA Protein Assay Reagent. Kit produced by Thermo Scientific (Cat. No. 23227) according to the protocols described in the attached manuals, respectively. The PCSK9 protein concentration in each sample was calculated as a concentration per unit mass of proteins. Then, by using PCSK9 production suppressing ratios at various concentrations obtained in accordance with the equation mentioned below, 50% PCSK9 production-suppressing concentration (IC50) of each compound was calculated with a linear regression equation.
Equation: PCSK9 production-suppressing ratio (%)=[(Average PCSK9 protein concentration in control group−Average PCSK9 protein concentration in test compound-treated group)/Average PCSK9 protein concentration in control group]×100
A general note: In an ELISA, binding on a coated surface is turned into a signal by an enzyme label.

Among the data in US20170298081A1, “CONDENSED HETEROCYCLIC COMPOUND” (KASUMA PARTNERS INC., priority 2014, published 2017) are melting point and IC50 values, retold here.

Usually melting point stands for the temperature, or range, at which the solid turns liquid. In the case of `Nc1c(Cl)ccc2oc(-c3ccc(C(F)(F)F)cc3)nc12` [Example 35A, 4-Amino-5-chloro-2-(4-trifluoromethylphenyl)benzoxazole], the melting point fell in the range of 132 to 134 °C.
With `Nc1ccc(Cl)c2oc(-c3ccc(C(F)(F)F)cc3)nc12` [Example 35B, 4-Amino-7-chloro-2-(4-trifluoromethylphenyl)benzoxazole], the melting point lay in the range of 149 to 150 °C. In data set [1], the IC50 turned out to be 1.24 nM.
